{
  "source": "ChEMBL document CHEMBL1128057",
  "about": "“Aryl-fused sphingolipids as novel PKC inhibitors with topical antiinflammatory activity” (Bioorg Med Chem Lett, 1995)",
  "key": {"Protein kinase C (PKC) [1]": {"target": "Protein kinase C (PKC)", "experiment": "Inhibitory concentration required against Protein kinase C (isolated from rat brain) in PKC assay performed with 4 ug phosphatidyl serine:diacylglycerol (2:1)"}, "Mus musculus": {"organism": "Mus musculus", "experiment": "Anti-inflammatory activity on the mice ears using antiinflammatory assay (TPAEE)", "assay_type": "functional"}, "Protein kinase C (PKC) [2]": {"target": "Protein kinase C (PKC)", "experiment": "Inhibition of Protein kinase C of rat brain using phosphatidyl serine: di-acyl glycerol (2:1)"}},
  "data": [
    {"molecule": "CCCCCCCC#Cc1ccc([C@@H](O)[C@@H](N)CO)s1", "values": [
      {"measurement": "IC50", "setting": "Protein kinase C (PKC) [1]", "value": 19.9, "unit": "µM"}
    ]},
    {"molecule": "N[C@@H](CO)[C@H](O)c1ccc(C#CCCCCc2ccccc2)s1", "values": [
      {"measurement": "IC50", "setting": "Protein kinase C (PKC) [1]", "value": 36, "unit": "µM"}
    ]},
    {"molecule": "CCCCCCCCCCC#Cc1cccc([C@@H](O)[C@@H](N)CO)c1", "values": [
      {"measurement": "ED50", "setting": "Mus musculus", "value": 0.34, "unit": "mg ear-1"},
      {"measurement": "IC50", "setting": "Protein kinase C (PKC) [2]", "value": 22.2, "unit": "µM"},
      {"measurement": "IC50", "setting": "Protein kinase C (PKC) [1]", "value": 2.7, "unit": "µM"}
    ]},
    {"molecule": "CCCCCCCCC#Cc1cccc([C@@H](O)[C@@H](N)CO)n1", "values": [
      {"measurement": "IC50", "setting": "Protein kinase C (PKC) [1]", "value": 13.3, "unit": "µM"}
    ]},
    {"molecule": "CCCCCCCCCCCCc1cccc([C@@H](O)[C@@H](N)CO)n1", "values": [
      {"measurement": "IC50", "setting": "Protein kinase C (PKC) [1]", "value": 10.9, "unit": "µM"}
    ]},
    {"molecule": "CCCCCCCCCc1ccc([C@@H](O)[C@@H](N)CO)s1", "values": [
      {"measurement": "IC50", "setting": "Protein kinase C (PKC) [1]", "value": 10, "unit": "µM"}
    ]},
    {"molecule": "CCCCCCCCCCCC(=O)c1cccc([C@@H](O)[C@@H](N)CO)c1", "values": [
      {"measurement": "IC50", "setting": "Protein kinase C (PKC) [2]", "value": 20.7, "unit": "µM"}
    ]},
    {"molecule": "CCCCCCCCCCc1cc([C@@H](O)[C@@H](N)CO)on1", "values": [
      {"measurement": "IC50", "setting": "Protein kinase C (PKC) [1]", "value": 43.9, "unit": "µM"}
    ]},
    {"molecule": "CCCCCCCCCCCCC/C=C/[C@@H](O)[C@@H](N)CO", "note": "[SPHINGOSINE]", "values": [
      {"measurement": "ED50", "setting": "Mus musculus", "value": 0.31, "unit": "mg ear-1"},
      {"measurement": "IC50", "setting": "Protein kinase C (PKC) [2]", "value": 23.4, "unit": "µM"},
      {"measurement": "IC50", "setting": "Protein kinase C (PKC) [1]", "value": 6.7, "unit": "µM"}
    ]},
    {"molecule": "CCCCCCCCCCCCc1ccc([C@@H](O)[C@@H](N)CO)s1", "values": [
      {"measurement": "IC50", "setting": "Protein kinase C (PKC) [1]", "value": 14, "unit": "µM"}
    ]},
    {"molecule": "CCCCCCCCCCCCc1cc([C@@H](O)[C@@H](N)CO)on1", "values": [
      {"measurement": "IC50", "setting": "Protein kinase C (PKC) [1]", "value": 9.1, "unit": "µM"}
    ]},
    {"molecule": "CCCCCCCCCCCCCCCCc1cccc([C@@H](O)[C@@H](N)CO)n1", "values": [
      {"measurement": "IC50", "setting": "Protein kinase C (PKC) [1]", "value": 4.5, "unit": "µM"}
    ]},
    {"molecule": "CCCCCCCCCC/C=C/c1csc([C@@H](O)[C@@H](N)CO)c1", "values": [
      {"measurement": "IC50", "setting": "Protein kinase C (PKC) [1]", "value": 5, "unit": "µM"}
    ]},
    {"molecule": "CCCCCCCCCCCC(=O)c1ccc([C@@H](O)[C@@H](N)CO)s1", "values": [
      {"measurement": "IC50", "setting": "Protein kinase C (PKC) [2]", "value": 22.4, "unit": "µM"}
    ]},
    {"molecule": "CCCCCCCCCC#Cc1cccc([C@@H](O)[C@@H](N)CO)n1", "values": [
      {"measurement": "IC50", "setting": "Protein kinase C (PKC) [1]", "value": 10, "unit": "µM"}
    ]},
    {"molecule": "CCCCCCCCCC#Cc1ccc([C@@H](O)[C@@H](N)CO)s1", "values": [
      {"measurement": "IC50", "setting": "Protein kinase C (PKC) [1]", "value": 4.7, "unit": "µM"}
    ]},
    {"molecule": "CCCCCCCCc1cccc([C@@H](O)[C@@H](N)CO)n1", "values": [
      {"measurement": "IC50", "setting": "Protein kinase C (PKC) [1]", "value": "> 100", "unit": "µM"}
    ]},
    {"molecule": "CCCCCCCCCCCc1cccc([C@@H](O)[C@@H](N)CO)n1", "values": [
      {"measurement": "IC50", "setting": "Protein kinase C (PKC) [1]", "value": 10, "unit": "µM"}
    ]},
    {"molecule": "CCCCCCCCCCCC(=O)c1csc([C@@H](O)[C@@H](N)CO)c1", "values": [
      {"measurement": "IC50", "setting": "Protein kinase C (PKC) [2]", "value": 22.4, "unit": "µM"}
    ]},
    {"molecule": "CCCCCCCCCC#Cc1cccc([C@@H](O)[C@@H](N)CO)c1", "values": [
      {"measurement": "IC50", "setting": "Protein kinase C (PKC) [1]", "value": 9.7, "unit": "µM"}
    ]},
    {"molecule": "CCCCCCCCCCCCc1csc([C@@H](O)[C@@H](N)CO)c1", "values": [
      {"measurement": "IC50", "setting": "Protein kinase C (PKC) [2]", "value": 13.3, "unit": "µM"}
    ]},
    {"molecule": "CCCCCCCCCCCOc1cccc([C@@H](O)[C@@H](N)CO)c1", "values": [
      {"measurement": "IC50", "setting": "Protein kinase C (PKC) [2]", "value": 24.1, "unit": "µM"}
    ]},
    {"molecule": "CCCCCCCCCCC#Cc1ccc([C@@H](O)[C@@H](N)CO)s1", "values": [
      {"measurement": "ED50", "setting": "Mus musculus", "value": 0.24, "unit": "mg ear-1"},
      {"measurement": "IC50", "setting": "Protein kinase C (PKC) [2]", "value": 26.2, "unit": "µM"},
      {"measurement": "IC50", "setting": "Protein kinase C (PKC) [1]", "value": 2.9, "unit": "µM"}
    ]},
    {"molecule": "CCCCCCCCCCC#Cc1csc([C@@H](O)[C@@H](N)CO)c1", "values": [
      {"measurement": "ED50", "setting": "Mus musculus", "value": 0.23, "unit": "mg ear-1"},
      {"measurement": "IC50", "setting": "Protein kinase C (PKC) [2]", "value": 23.7, "unit": "µM"},
      {"measurement": "IC50", "setting": "Protein kinase C (PKC) [1]", "value": 10.8, "unit": "µM"}
    ]},
    {"molecule": "CCCCCCCCCCC#Cc1csc([C@@H](O)[C@@H](N)CO)n1", "values": [
      {"measurement": "IC50", "setting": "Protein kinase C (PKC) [2]", "value": 15.2, "unit": "µM"}
    ]},
    {"molecule": "CCCCCCCCCCc1cccc([C@@H](O)[C@@H](N)CO)n1", "values": [
      {"measurement": "IC50", "setting": "Protein kinase C (PKC) [1]", "value": 30.5, "unit": "µM"}
    ]},
    {"molecule": "N[C@@H](CO)[C@H](O)c1cccc(C#CCCCCCc2ccccc2)n1", "values": [
      {"measurement": "IC50", "setting": "Protein kinase C (PKC) [1]", "value": 15.9, "unit": "µM"}
    ]},
    {"molecule": "CCCCCCCCCCCC#Cc1ccc([C@@H](O)[C@@H](N)CO)s1", "values": [
      {"measurement": "IC50", "setting": "Protein kinase C (PKC) [1]", "value": 3.5, "unit": "µM"}
    ]},
    {"molecule": "CCCCCCCCCCC#Cc1cc([C@@H](O)[C@@H](N)CO)cs1", "values": [
      {"measurement": "IC50", "setting": "Protein kinase C (PKC) [2]", "value": 34.5, "unit": "µM"}
    ]},
    {"molecule": "CCCCCCCCCCCCc1cccc([C@@H](O)[C@@H](N)CO)c1", "values": [
      {"measurement": "IC50", "setting": "Protein kinase C (PKC) [2]", "value": 17.3, "unit": "µM"},
      {"measurement": "IC50", "setting": "Protein kinase C (PKC) [1]", "value": 3.7, "unit": "µM"}
    ]}
  ]
}
